According to PubChem BioAssay (NCI):
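Assay format: 96-well plates, 48-hour exposure. Abbreviation: GI50, concentration required for 50% inhibition of growth. At the TGI there is no net growth.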

Columns and labels:
Test in all cases: inhibition of tumour cell growth, NCI panel, 48 h
SNB-75 CNS = tested on: SNB-75 CNS
A549 NSCLC = tested on: A549 NSCLC
786-0 renal = tested on: 786-0 renal
DU-145 prostate = tested on: DU-145 prostate
UO-31 renal = tested on: UO-31 renal
PC-3 prostate = tested on: PC-3 prostate
UACC-257 melanoma = tested on: UACC-257 melanoma
MALME-3M melanoma = tested on: MALME-3M melanoma
SK-OV-3 ovarian = tested on: SK-OV-3 ovarian
SK-MEL-28 melanoma = tested on: SK-MEL-28 melanoma

SMILES	GI50 (SNB-75 CNS) [µM]	TGI (SNB-75 CNS) [µM]	GI50 (A549 NSCLC) [µM]	TGI (A549 NSCLC) [µM]	GI50 (786-0 renal) [µM]	TGI (786-0 renal) [µM]	GI50 (DU-145 prostate) [µM]	TGI (DU-145 prostate) [µM]	GI50 (UO-31 renal) [µM]	TGI (UO-31 renal) [µM]	GI50 (PC-3 prostate) [µM]	TGI (PC-3 prostate) [µM]	GI50 (UACC-257 melanoma) [µM]	TGI (UACC-257 melanoma) [µM]	GI50 (MALME-3M melanoma) [µM]	TGI (MALME-3M melanoma) [µM]	GI50 (SK-OV-3 ovarian) [µM]	TGI (SK-OV-3 ovarian) [µM]	GI50 (SK-MEL-28 melanoma) [µM]	TGI (SK-MEL-28 melanoma) [µM]
C=C1C(=O)O[C@H]2[C@H]1CC/C(COC(=O)/C=C\C(=O)NCc1ccc(Cn3c(=O)sn(CCCC)c3=O)cc1)=C\CC[C@@]1(C)O[C@@H]21	0.697	2.19	1.56	4.16	1.2	2.56	0.854	2.16	0.387	1.61	0.868	2.34	1.38	2.93	1.35	2.71	3.33	8.55	1.41	2.74
Cc1nc2sc3c(c2c(=O)[nH]1)CCCC3	–	> 100	–	> 100	–	> 100	–	> 100	–	68.2	–	> 100	–	> 100	–	> 100	–	> 100	–	> 100
CC1=NC(=Cc2cc(Br)cc(Br)c2)C(=O)N1n1c(-c2ccccc2)nc2ccccc2c1=O	–	> 100	–	> 100	–	> 100	–	> 100	–	> 100	–	> 100	–	> 100	–	> 100	–	> 100	–	> 100
CCN1CCC(O)(/C=C/c2ccc(C)cc2)C(C(=O)/C=C/c2ccc(C)cc2)C1 (stereo not given)	–	22	–	21.4	–	4.29	–	25.2	–	12.4	–	18.1	–	25.5	–	14.8	–	29.1	–	14.8
COc1ccc(-c2ccc(-c3ccc(C(=N)N)s3)s2)cc1	1.39	2.91	0.195	0.393	0.187	0.378	0.193	0.357	0.181	0.355	0.167	0.318	0.746	1.68	0.564	1.39	2.14	4.3	0.187	0.348
CCOC(=O)c1c(NC(=O)c2cccc(C(F)(F)F)c2)sc2c(CN(C)C)c(O)ccc12	11.1	26.8	3.3	12.7	2.33	6.1	5.82	17.9	3.34	14.4	5.45	18.1	1.76	3.31	1.71	3.22	19.1	41.8	1.76	3.21
COc1cc(OC)c(/C=C/c2c3ccccc3cc[n+]2C)c(OC)c1	1.27	8.01	2.13	> 100	7.37	> 100	2.96	48.8	18.5	> 100	0.943	> 37.9	0.674	6.01	2.32	15.4	3.58	> 100	2.34	13.2
